Laboratory results from patent US20160102052A1, “Use of Cysteamine in Treating Infections caused by Yeasts/Moulds” (priority 2014, published 2016).

Test system: Exophiala dermatitidis CA01
Test: Broth microdilution chequerboard analysis of Lynovex (NM001) in combination with clinical antifungals
Type: cell-based
Details: for Antifungal MIC100 / Antifungal MIC50: antifungal in isolation; for Antifungal MIC100 / Antifungal MIC100 in Combination: 72 h; for Antifungal MIC100 / Antifungal MIC50 / Antifungal MIC100 in Combination / Antifungal MIC50 in Combination: 35° C.; for FICI: antifungal with Lynovex (NM001), <0.5 Synergy, 0.5-1 Additive, >1 Indifference; for Antifungal MIC100 in Combination / Antifungal MIC50 in Combination: in combination with Lynovex (NM001)
Description: The aim of the experiment was to determine the effect of Lynovex (NM001) on the antifungal drug susceptibility of Exophiala dermatitidis CA01. Microtitre plates were prepared following CLSI recommendations for broth microdilution chequerboard method. These plates contained a serial doubling dilution of Lynovex (NM001) combined with serial doubling dilutions of antifungals drugs; Fluconazole, Itraconazole, Caspofungin and Amphotericin B. […] These were incubated at 35° C. and read at 72 h, 96 h, 120 h and 144 h on the BioTek plate reader. […] Three independent E. dermatitidis CA01 cultures were grown on PDA slope for 6 days at 35° C. • 7. Cultures were removed from incubator. 2 ml sterile 0.15M NaCl added to the overnight culture and cells harvested from the surface of the agar. Cells placed in fresh bijou tube. • 8. The cultures were allowed to rest for up to 10 minutes, allowing any hyphae to settle to the bottom. The top layer of conidia was removed into fresh bijou. Hyphae were discarded. • 9. […] This is continued to F12 where 100 μl is removed and discarded. • f. This dilution series was repeated in rows G-H for the remaining 2 cultures • g. Plate read at OD530 on BioTek • h. […] This preparation step occurs in two parts. First, Lynovex (NM001) and antifungals are serially diluted, down and across microtitre plates, respectively. Equal volumes of Lynovex and antifungal are then combined in a fresh microtitre plate, prior to inoculation. […] Stock solutions of Lynovex and antifungals were prepared at 4× desired concentrations. The plate layout at the end of this protocol is the final concentration in the plate following the combination of Lynovex and antifungals and the addition of the inocula. […] All other wells contain 150 μl sterile dH2O. • 9. Serial doubling dilutions are carried out from A to B whereby 150 μl is removed from A and placed into B and mixed well. Then take 150 μl B and place in C and mix well. This is repeated down to row G where the final 150 μl is discarded. […] The same procedure is repeated for the other 4 antifungals, carrying the dilutions across the plate i.e. […] At the final dilution in column 10, the final 150 μl is discarded. […] Inoculating Plates with E. dermatitidis CA01 • 6. Add 100 μl (total volume 200 μl) of the prepared E. dermatitidis CA01 culture to the all wells on the plate except wells H12. […] H12 will contain 100 μl water and 100 μl 2×RPMI-1640 alone, constituting an uninoculated control. • 8. The plate is read in the BioTek at OD530. • 9. Plates are then placed in a plastic box containing a Petri dish of water, sealed and incubated at 35° C. The presence of the water in the dish or on the tissue provides and environment of relatively high humidity. • 10. OD530 is then read at 72 h, 96 h, 120 h and 144 h and raw data processed using Microsoft Excel. • 11. Fractional Inhibitory Concentration (FIC) Index values are generated using MIC100 for 72 h data and MIC50 for later time points using the following formula: […]

Antifungal MIC100 (GEOMEAN): 0.59 µg/mL | Antifungal MIC50 (GEOMEAN, 96 h): 0.47 µg/mL | Antifungal MIC50 (GEOMEAN, 120 h): 0.47 µg/mL | Antifungal MIC50 (GEOMEAN, 144 h): 0.59 µg/mL | Antifungal MIC100 in Combination (GEOMEAN): 0.23 µg/mL | Antifungal MIC50 in Combination (GEOMEAN, 96 h): 0.17 µg/mL | Antifungal MIC50 in Combination (GEOMEAN, 120 h): 0.19 µg/mL | Antifungal MIC50 in Combination (GEOMEAN, 144 h): 0.23 µg/mL | Antifungal MIC100 (MEAN): 0.86 µg/mL | Antifungal MIC50 (MEAN, 96 h): 0.47 µg/mL | Antifungal MIC50 (MEAN, 120 h): 0.47 µg/mL | Antifungal MIC50 (MEAN, 144 h): 0.63 µg/mL | Antifungal MIC100 in Combination (MEAN): 0.23 µg/mL | Antifungal MIC50 in Combination (MEAN, 96 h): 0.18 µg/mL | Antifungal MIC50 in Combination (MEAN, 120 h): 0.20 µg/mL | Antifungal MIC50 in Combination (MEAN, 144 h): 0.23 µg/mL | Antifungal MIC100 (Range): 0.23 to 1.88 µg/mL | Antifungal MIC50 (Range, 96 h): 0.47 µg/mL | Antifungal MIC50 (Range, 120 h): 0.5 µg/mL | Antifungal MIC50 (Range, 144 h): 0.47 to 0.94 µg/mL | Antifungal MIC100 in Combination (Range): 0.23 µg/mL | Antifungal MIC50 in Combination (Range, 96 h): 0.12 to 0.23 µg/mL | Antifungal MIC50 in Combination (Range, 120 h): 0.12 to 0.23 µg/mL | Antifungal MIC50 in Combination (Range, 144 h): 0.23 µg/mL
SMILES: C[C@@H]1[C@H](O)[C@@H](C)/C=C/C=C/C=C/C=C/C=C/C=C/C=C/[C@H](O[C@@H]2O[C@H](C)[C@@H](O)[C@H](N)[C@@H]2O)C[C@@H]2O[C@](O)(C[C@@H](O)C[C@@H](O)[C@H](O)CC[C@@H](O)C[C@@H](O)CC(=O)O[C@H]1C)C[C@H](O)[C@H]2C(=O)O [Amphotericin B]
FICI (GEOMEAN, MIC50, 96 h): 0.63 (2) | FICI (GEOMEAN, MIC50, 120 h): 0.58 (3) | FICI (GEOMEAN, MIC50, 144 h): 0.75 (2) | FICI (GEOMEAN, MIC100, 72 h): 0.53 (1) | FICI (MEAN, MIC50, 96 h): 0.64 (2) | FICI (MEAN, MIC50, 120 h): 0.59 (3) | FICI (MEAN, MIC50, 144 h): 0.75 (2) | FICI (MEAN, MIC100, 72 h): 0.53 (1)
